Experimental data from US20060252807A1, “Novel ortho-terphenyl inhibitors of p38 kinase and methods of treating inflammatory disorders” (Kalypsys, Inc., priority 2005, published 2006).

molecular target: T1, active p38 alpha enzyme (Upstate Biotechnology) (Homo sapiens, UniProt Q16539); experiment: p38α biochemical assay (ATP turnover, luminescent detection, Cambrex PKlight); conditions: p38α biochemical assay, Table 1 Biological Activity
T1 construct: purchased Upstate Biotechnology
Procedure, shortened: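 Active human p38α was incubated with full-length MapkapK2 protein as substrate and 1.4 uM ATP (final) for 2 hours at 30C. Buffer: 200 mM Tris, 100 mM MgCl2, 1.5 mM EGTA, 4 mM CaCl2, 20 mM MOPS, 1 mM EDTA, 1% glycerol, 0.1% β-mercaptoethanol, 1 mg/ml BSA. Total ATP turnover read by luminescence.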

T1 sequence (Q16539 whole entry): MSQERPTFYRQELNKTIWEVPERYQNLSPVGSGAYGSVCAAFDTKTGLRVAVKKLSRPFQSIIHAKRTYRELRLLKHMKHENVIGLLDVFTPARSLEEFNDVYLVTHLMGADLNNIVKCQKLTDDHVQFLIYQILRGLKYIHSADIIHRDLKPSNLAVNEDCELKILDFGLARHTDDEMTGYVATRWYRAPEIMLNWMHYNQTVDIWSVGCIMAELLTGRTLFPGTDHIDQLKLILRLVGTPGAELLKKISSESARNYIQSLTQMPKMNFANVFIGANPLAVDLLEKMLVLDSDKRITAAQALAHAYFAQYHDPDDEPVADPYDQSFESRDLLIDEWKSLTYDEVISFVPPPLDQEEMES

`CC(C)NC(=O)c1csc(-c2oc(CN3CCN(C(=O)/C=C/c4ccc(Cl)cc4)CC3)nc2-c2ccc(F)cc2)n1` [Example 467] and `CC(C)NC(=O)c1csc(-c2oc(CN3CCN(C(=O)/C=C/c4ccccc4Cl)CC3)nc2-c2ccc(F)cc2)n1` [Example 468] cannot be ordered by IC50: > 1000 nM for the first, > 1000 nM for the second.

`CNC(=O)n1ccc(-c2c(-c3ccc(Cl)cc3)noc2C)n1` [Example 3, 3-|3-(4-Chloro-phenyl)-5-methyl-isoxazol-4-yl|-pyrazole-1-carboxylic acid methylamide] and `CC(C)NC(=O)c1csc(-c2c(-c3ccc(F)cc3)noc2CNC(=O)c2c(F)cccc2F)n1` [Example 632] cannot be ordered by IC50: > 1000 nM for the first, > 1000 nM for the second.

`CC(C)NC(=O)c1csc(-c2c(-c3ccc(F)cc3)noc2CNC(=O)c2c3ccccc3cc3ccccc23)n1` [Example 778] and `Cc1ccccc1OCC(=O)NCc1onc(-c2ccc(F)cc2)c1-c1nc(C(=O)NC(C)C)cs1` [Example 655] cannot be ordered by IC50: > 1000 nM for the first, > 1000 nM for the second.

`CC(C)NC(=O)c1csc(-c2oc(CNC(=O)c3cnc[nH]3)nc2-c2ccc(F)cc2)n1` [Example 105] and `CC(C)NC(=O)c1csc(-c2oc(CNC(=O)c3cc(F)cc(F)c3)nc2-c2ccc(F)cc2)n1` [Example 160] cannot be ordered by IC50: ≤ 1000 nM for the first, > 1000 nM for the second.

`Cc1ccc(C(=O)CCC(=O)NCc2onc(-c3ccc(F)cc3)c2-c2nc(C(=O)NC(C)C)cs2)cc1` [Example 731] and `COc1ccc([N+](=O)[O-])c(C(=O)NCc2onc(-c3ccc(F)cc3)c2-c2nc(C(=O)NC(C)C)cs2)c1` [Example 740] cannot be ordered by IC50: > 1000 nM for the first, > 1000 nM for the second.

`CCOC(=O)CC(=O)NCc1nc(-c2ccc(F)cc2)c(-c2nc(C(=O)NC(C)C)cs2)o1` [Example 120] and `COc1cccc(O)c1C(=O)NCc1nc(-c2ccc(F)cc2)c(-c2nc(C(=O)NC(C)C)cs2)o1` [Example 186] cannot be ordered by IC50: ≤ 1000 nM for the first, > 1000 nM for the second.

`Cc1ccccc1OCC(=O)N1CCN(Cc2nc(-c3ccc(F)cc3)c(-c3nc(C(=O)NC(C)C)cs3)o2)CC1` [Example 417] and `COc1cc(C(=O)N2CCN(Cc3nc(-c4ccc(F)cc4)c(-c4nc(C(=O)NC(C)C)cs4)o3)CC2)cc(Cl)n1` [Example 478] cannot be ordered by IC50: > 1000 nM for the first, > 1000 nM for the second.

`CC(C)NC(=O)c1csc(-c2oc(CNC(=O)C3CC(O)CN3C(=O)OC(C)(C)C)nc2-c2ccc(F)cc2)n1` (stereo not shown) [Example 317] and `Cc1nc(Br)sc1C(=O)NCc1onc(-c2ccc(F)cc2)c1-c1nc(C(=O)NC(C)C)cs1` [Example 777] cannot be ordered by IC50: > 1000 nM for the first, > 1000 nM for the second.

`Cc1nc(-c2ccc(F)cc2)c(-c2nc(C(=O)NCc3cccnc3)cs2)s1` [Example 55, 4′-(4-Fluoro-phenyl)-2′-methyl-|2,5′|bithiazolyl-4-carboxylic acid (pyridin-3-ylmethyl)-amide] and `CC(C)NC(=O)c1csc(-c2c(-c3ccc(F)cc3)noc2CNC(=O)c2cscn2)n1` [Example 594] cannot be ordered by IC50: ≤ 1000 nM for the first, > 1000 nM for the second.

same assay, conditions: p38α kinase; Table 1 Biological Activity

`CC(C)NC(=O)c1csc(-c2oc(CN(CCO)Cc3ccccc3)nc2-c2ccc(F)cc2)n1` [Example 1234] and `CC(C)NC(=O)c1csc(-c2oc(CN(Cc3ccccc3)C(C)C)nc2-c2ccc(F)cc2)n1` [Example 1233] cannot be ordered by IC50: > 1000 nM for the first, > 1000 nM for the second.

`CC(C)NC(=O)c1csc(-c2oc(CN3CCC(O)(c4ccc(Cl)cc4)CC3)nc2-c2ccc(F)cc2)n1` [Example 1289] and `CC1CCN(Cc2nc(-c3ccc(F)cc3)c(-c3nc(C(=O)NC(C)C)cs3)o2)CC1` [Example 1198] cannot be ordered by IC50: > 1000 nM for the first, > 1000 nM for the second.

`CCCc1ccc(C(=O)N2CCC(c3[nH]nc(-c4ccc(F)cc4)c3-c3nc(C(=O)NC(C)C)cs3)CC2)cc1` [Example 890] and `CCN(CC)c1ccc(C(=O)N2CCC(c3[nH]nc(-c4ccc(F)cc4)c3-c3nc(C(=O)NC(C)C)cs3)CC2)cc1` [Example 974] cannot be ordered by IC50: > 1000 nM for the first, > 1000 nM for the second.

`Cc1nc(-c2ccc(F)cc2)c(-c2nc(C(=O)Nc3cnc4ccccc4c3)cs2)s1` [Example 1994] and `Cc1nc(-c2ccc(F)cc2)c(-c2nc(C(=O)Nc3ccccc3-n3cccc3)cs2)s1` [Example 2004] cannot be ordered by IC50: ≤ 1000 nM for the first, > 1000 nM for the second.

`COc1ccc(C(=O)N2CCC(c3[nH]nc(-c4ccc(F)cc4)c3-c3nc(C(=O)NC(C)C)cs3)CC2)c(OC)c1OC` [Example 1000] and `CC(=O)c1ccccc1C(=O)N1CCC(c2[nH]nc(-c3ccc(F)cc3)c2-c2nc(C(=O)NC(C)C)cs2)CC1` [Example 884] cannot be ordered by IC50: > 1000 nM for the first, > 1000 nM for the second.

`CC(C)NC(=O)c1csc(-c2c(-c3ccc(F)cc3)noc2CN(CCO)[C@H](C)c2ccccc2)n1` [Example 1570] and `CC(C)NC(=O)c1csc(-c2c(-c3ccc(F)cc3)noc2CNCc2ccc(F)cc2)n1` [Example 1435] cannot be ordered by IC50: > 1000 nM for the first, > 1000 nM for the second.

`CC(C)NC(=O)c1csc(-c2oc(CNCc3cc(F)cc(F)c3)nc2-c2ccc(F)cc2)n1` [Example 1136] and `CC(C)CCNCc1nc(-c2ccc(F)cc2)c(-c2nc(C(=O)NC(C)C)cs2)o1` [Example 1070] cannot be ordered by IC50: > 1000 nM for the first, > 1000 nM for the second.

`COc1ccc(N2CCN(Cc3onc(-c4ccc(F)cc4)c3-c3nc(C(=O)NC(C)C)cs3)CC2)cc1OC` [Example 1628] and `CC1CCN(Cc2onc(-c3ccc(F)cc3)c2-c2nc(C(=O)NC(C)C)cs2)CC1` [Example 1523] cannot be ordered by IC50: > 1000 nM for the first, > 1000 nM for the second.

`CC(C)NC(=O)c1csc(-c2c(-c3ccc(F)cc3)noc2CN2C[C@@H](C)N[C@@H](C)C2)n1` [Example 1535] and `CC(C)NC(=O)c1csc(-c2c(-c3ccc(F)cc3)n[nH]c2C2CCN(C(=O)CC#N)CC2)n1` [Example 814] cannot be ordered by IC50: > 1000 nM for the first, ≤ 1000 nM for the second.

`COc1ccc(CNC(=O)c2csc(-c3c(-c4ccc(F)cc4)n[nH]c3C3CCNCC3)n2)cc1OC` [Example 2139] and `COc1ccc(CCNC(=O)c2csc(-c3c(-c4ccc(F)cc4)n[nH]c3C3CCNCC3)n2)cc1` [Example 2122] cannot be ordered by IC50: > 1000 nM for the first, > 1000 nM for the second.

`CCc1cccc(C)c1NCc1nc(-c2ccc(F)cc2)c(-c2nc(C(=O)NC(C)C)cs2)o1` [Example 1337] and `Cc1cc(C)c(NCc2nc(-c3ccc(F)cc3)c(-c3nc(C(=O)NC(C)C)cs3)o2)c(C)c1` [Example 1338] cannot be ordered by IC50: > 1000 nM for the first, > 1000 nM for the second.

`CC(C)NC(=O)c1csc(-c2c(-c3ccc(F)cc3)n[nH]c2C2CCN(C(=O)c3ccc(C(F)(F)F)cc3[N+](=O)[O-])CC2)n1` [Example 1033] and `CC(C)NC(=O)c1csc(-c2c(-c3ccc(F)cc3)n[nH]c2C2CCN(C(=O)c3ccccc3C=O)CC2)n1` [Example 846] cannot be ordered by IC50: > 1000 nM for the first, ≤ 1000 nM for the second.

`Cc1ccc([C@@H](C)NC(=O)c2csc(-c3c(-c4ccc(F)cc4)n[nH]c3C3CCNCC3)n2)cc1` [Example 2093] and `O=C(NCCc1ccc(Cl)cc1)c1csc(-c2c(-c3ccc(F)cc3)n[nH]c2C2CCNCC2)n1` [Example 2127] cannot be ordered by IC50: > 1000 nM for the first, > 1000 nM for the second.

`O=C(NCc1ccc(Cl)cc1Cl)c1csc(-c2c(-c3ccc(F)cc3)n[nH]c2C2CCNCC2)n1` [Example 2146] and `O=C(NCCN1CCCC1)c1csc(-c2c(-c3ccc(F)cc3)n[nH]c2C2CCNCC2)n1` [Example 2070] cannot be ordered by IC50: > 1000 nM for the first, > 1000 nM for the second.

`O=C(NC1CCCCC1)c1csc(-c2c(-c3ccc(F)cc3)ncn2C2CCNCC2)n1` [Example 2191, 2-|5-(4-Fluoro-phenyl)-3-piperidin-4-yl-3H-imidazol-4-yl|-thiazole-4-carboxylic acid cyclohexylamide] and `CC(C)NC(=O)c1csc(-c2oc(CNC3CCCCCC3)nc2-c2ccc(F)cc2)n1` [Example 1091] cannot be ordered by IC50: ≤ 1000 nM for the first, > 1000 nM for the second.

With `Cc1nc(-c2ccc(F)cc2)c(-c2nc(C(=O)N3CCCC(c4ccc(C(F)(F)F)cc4)C3)cs2)s1` (stereo not shown) [Example 1954] the IC50 was > 1000 nM.
